Data published in ChEMBL document CHEMBL3745645, “Synthesis, in vitro antitumor activity, dihydrofolate reductase inhibition, DNA intercalation and structure-activity relationship studies of 1,3,5-triazine analogues” (Bioorg Med Chem Lett, 2016).

Assays:
Format in all cases: functional
[1] = tested on: SN12C; assay: Cytotoxicity against human SN12C cells at 10 uM after 48 hrs by SRB assay; conditions: read-out: GI
[2] = Cytotoxicity against human UO31 cells at 10 uM after 48 hrs by SRB assay; conditions: UO-31, 48 h, read-out: GI
[3] = Cytotoxicity against human DU145 cells at 10 uM after 48 hrs by SRB assay; conditions: DU-145, 48 h, read-out: GI
[4] = tested on: MCF7; assay: Cytotoxicity against human MCF7 cells at 10 uM after 48 hrs by SRB assay; conditions: MCF7, 48 h, read-out: GI
[5] = Cytotoxicity against human Hs 578T cells at 10 uM after 48 hrs by SRB assay; conditions: read-out: GI
[6] = tested on: T47D; assay: Cytotoxicity against human T47D cells at 10 uM after 48 hrs by SRB assay; conditions: read-out: GI
[7] = tested on: CCRF-CEM; assay: Cytotoxicity against human CCRF-CEM cells at 10 uM after 48 hrs by SRB assay; conditions: read-out: GI
[8] = Cytotoxicity against human MOLT4 cells at 10 uM after 48 hrs by SRB assay; conditions: MOLT-4, 48 h, read-out: GI
[9] = tested on: SR; assay: Cytotoxicity against human SR cells at 10 uM after 48 hrs by SRB assay; conditions: read-out: GI
[10] = tested on: A549; assay: Cytotoxicity against human A549 cells at 10 uM after 48 hrs by SRB assay; conditions: A549, 48 h, read-out: GI
[11] = Cytotoxicity against human HOP62 cells at 10 uM after 48 hrs by SRB assay; conditions: HOP-62, 48 h, read-out: GI
[12] = Cytotoxicity against human HOP92 cells at 10 uM after 48 hrs by SRB assay; conditions: HOP-92, 48 h, read-out: GI
[13] = tested on: NCI-H322M; assay: Cytotoxicity against human NCI-H322M cells at 10 uM after 48 hrs by SRB assay; conditions: read-out: GI
[14] = tested on: NCI-H522; assay: Cytotoxicity against human NCI-H522 cells at 10 uM after 48 hrs by SRB assay; conditions: NCI-H522, 48 h, read-out: GI
[15] = Cytotoxicity against human HCT116 cells at 10 uM after 48 hrs by SRB assay; conditions: HCT-116, 48 h, read-out: GI
[16] = tested on: KM12; assay: Cytotoxicity against human KM12 cells at 10 uM after 48 hrs by SRB assay; conditions: KM12, 48 h, read-out: GI
[17] = Cytotoxicity against human SF268 cells at 10 uM after 48 hrs by SRB assay; conditions: SF-268, 48 h, read-out: GI
[18] = Cytotoxicity against human SF539 cells at 10 uM after 48 hrs by SRB assay; conditions: SF-539, 48 h, read-out: GI
[19] = Cytotoxicity against human SNB19 cells at 10 uM after 48 hrs by SRB assay; conditions: SNB-19, 48 h, read-out: GI
[20] = tested on: U-251; assay: Cytotoxicity against human U251 cells at 10 uM after 48 hrs by SRB assay; conditions: U-251, 48 h, read-out: GI
[21] = tested on: Malme-3M; assay: Cytotoxicity against human MALME-3M cells at 10 uM after 48 hrs by SRB assay; conditions: read-out: GI
[22] = tested on: M14; assay: Cytotoxicity against human M14 cells at 10 uM after 48 hrs by SRB assay; conditions: M14, 48 h, read-out: GI
[23] = tested on: SK-MEL-2; assay: Cytotoxicity against human SK-MEL-2 cells at 10 uM after 48 hrs by SRB assay; conditions: SK-MEL-2, 48 h, read-out: GI
[24] = tested on: SK-MEL-5; assay: Cytotoxicity against human SK-MEL-5 cells at 10 uM after 48 hrs by SRB assay; conditions: SK-MEL-5, 48 h, read-out: GI
[25] = Cytotoxicity against human OVCAR5 cells at 10 uM after 48 hrs by SRB assay; conditions: OVCAR-5, 48 h, read-out: GI
[26] = Cytotoxicity against human SKOV3 cells at 10 uM after 48 hrs by SRB assay; conditions: SK-OV-3, 48 h, read-out: GI
[27] = tested on: 786-0; assay: Cytotoxicity against human 786-0 cells at 10 uM after 48 hrs by SRB assay; conditions: 786-0, 48 h, read-out: GI
[28] = tested on: A498; assay: Cytotoxicity against human A498 cells at 10 uM after 48 hrs by SRB assay; conditions: A498, 48 h, read-out: GI
[29] = tested on: ACHN; assay: Cytotoxicity against human ACHN cells at 10 uM after 48 hrs by SRB assay; conditions: read-out: GI

`Cc1nc2ccc(Nc3nc(NCCN)nc(Nc4ccc(F)cc4)n3)cc2n1Cc1ccccc1` showed an inhibition of growth at 10 µM [1] of 24.8%, an inhibition of growth at 10 µM [2] of 13.7% and an inhibition of growth at 10 µM [3] of 8.56%. For the same molecule, the inhibition of growth at 10 µM [4] was 39.1%, the inhibition of growth at 10 µM [5] was 20.5% and the inhibition of growth at 10 µM [6] was 23.2%. For the same molecule, the inhibition of growth at 10 µM [7] was 51.9%, the inhibition of growth at 10 µM [8] was 40.7% and the inhibition of growth at 10 µM [9] was 88.9%. It also gave an inhibition of growth at 10 µM [10] of 13.2%, an inhibition of growth at 10 µM [11] of 20.6% and an inhibition of growth at 10 µM [12] of 56.8%. The inhibition of growth at 10 µM [13] was 7.76%, the inhibition of growth at 10 µM [14] was 31% and the inhibition of growth at 10 µM [15] was 39.7%. For the same molecule, the inhibition of growth at 10 µM [16] was 26.8%, the inhibition of growth at 10 µM [17] was 19.2% and the inhibition of growth at 10 µM [18] was 0.19%. It also gave an inhibition of growth at 10 µM [19] of 10.1%, an inhibition of growth at 10 µM [20] of 46.5% and an inhibition of growth at 10 µM [21] of 26%. It also gave an inhibition of growth at 10 µM [22] of 16.4%, an inhibition of growth at 10 µM [23] of 19.9% and an inhibition of growth at 10 µM [24] of 25.5%. For the same molecule, the inhibition of growth at 10 µM [25] was 6.17%, the inhibition of growth at 10 µM [26] was 13.2% and the inhibition of growth at 10 µM [27] was 20.5%. It also gave an inhibition of growth at 10 µM [28] of 25.5% and an inhibition of growth at 10 µM [29] of 8.19%.
